Drawing on ChEMBL document CHEMBL4627274, “Optimized plant compound with potent anti-biofilm activity across gram-negative species” (Bioorg Med Chem, 2020), this text covers MBIC50, inhibition and INH for 32 molecules.

Common to all, as to format: functional
For experiment [1], the system named is Escherichia coli. Briefly: Antibiofilm activity against Escherichia coli UTI89 incubated for 2 days at 23 degC followed by 1 day incubation at RT.
Experiment [2] deals with Escherichia coli. Description: Inhibition of swarming motility of Escherichia coli PY31 at 16 ug/mL incubated for 16 to 20 hrs relative to control.
The subject of experiment [3] is Pseudomonas aeruginosa. Briefly: Inhibition of swarming motility of Pseudomonas aeruginosa HONKR at 16 ug/mL incubated for 16 to 20 hrs relative to control.
The test system of experiment [4] is Pseudomonas aeruginosa. Description: Inhibition of swarming motility of Pseudomonas aeruginosa clinical isolates incubated for 16 to 20 hrs.
The subject of another experiment is Burkholderia cepacia. Briefly: Inhibition of swarming motility of Burkholderia cepacia clinical isolates incubated for 16 to 20 hrs.
The subject of the next experiment is Salmonella enterica. Briefly: Inhibition of swarming motility of Salmonella enterica clinical isolates incubated for 16 to 20 hrs.
The subject of experiment [5] is Escherichia coli. Briefly: Inhibition of swarming motility of Escherichia coli clinical isolates incubated for 16 to 20 hrs.

Molecules are shown by their SMILES.

In the experiment on Escherichia coli [1], `CC1(C)CC[C@]2(C(=O)O)CC[C@]3(C)C(=CC[C@@H]4[C@@]5(C)C[C@@H](C(=O)NC6CC6)[C@H](O)C(C)(C)[C@@H]5CC[C@]43C)[C@@H]2C1` returned an MBIC50 of 4 µg/mL. Further, the values for the inhibition at 16 µg/mL with Escherichia coli [2] and in the experiment on Pseudomonas aeruginosa [3] were 70% and less than 20%, respectively.
Consider `C[C@H]1[C@H](C)CC[C@]2(C(=O)O)CC[C@]3(C)C(=CC[C@@H]4[C@@]5(C)CC[C@H](O)C(C)(C)[C@@H]5CC[C@]43C)[C@H]12` [URSOLIC ACID], for which the inhibition at 16 µg/mL with Pseudomonas aeruginosa [3] is more than 90%.
In the experiment with Pseudomonas aeruginosa [3], `C[C@H]1[C@H](C)CC[C@]2(C(=O)O)CC[C@]3(C)C(=CC[C@@H]4[C@@]5(C)[C@H](O)[C@@H](O)[C@@H](O)[C@](C)(CO)[C@@H]5CC[C@]43C)[C@H]12` displayed an inhibition at 16 µg/mL of 80%.
`CCCN(C)C(=O)[C@@H]1C[C@]2(C)[C@H]3CC=C4[C@@H]5CC(C)(C)CC[C@]5(C(=O)O)CC[C@@]4(C)[C@]3(C)CC[C@H]2C(C)(C)[C@H]1O` returned an MBIC50 in the experiment on Escherichia coli [1] of 4 µg/mL. Besides, the inhibition at 16 µg/mL is 50% in the experiment on Escherichia coli [2] and less than 20% with Pseudomonas aeruginosa [3].
Regarding `C=C(C)[C@@H]1CC[C@]2(C)CC[C@]3(C)[C@H](CC[C@@H]4[C@@]5(C)CC[C@H](O)C(C)(C)[C@@H]5CC[C@]43C)[C@@H]12` [LUPEOL], the inhibition at 16 µg/mL in the experiment on Pseudomonas aeruginosa [3] is less than 20%.
Take `Cn1ccnc1[C@@H]1C[C@]2(C)[C@H]3CC=C4[C@@H]5CC(C)(C)CC[C@]5(C(=O)O)CC[C@@]4(C)[C@]3(C)CC[C@H]2C(C)(C)[C@H]1O`: in the experiment on Escherichia coli [1], the MBIC50 result was “>=32 ug ml-1”. Further, the inhibition at 16 µg/mL in the experiment with Escherichia coli [2] is 80%; in the experiment with Pseudomonas aeruginosa [3] it was less than 20%.
On to `CN1CCN=C1[C@@H]1C[C@]2(C)[C@H]3CC=C4[C@@H]5CC(C)(C)CC[C@]5(C(=O)O)CC[C@@]4(C)[C@]3(C)CC[C@H]2C(C)(C)[C@H]1O`, for which the MBIC50 entry in the experiment on Escherichia coli [1] is listed as “>=32 ug ml-1”. Moreover, the inhibition at 16 µg/mL is less than 20% with Escherichia coli [2] and more than 20% in the experiment with Pseudomonas aeruginosa [3].
The molecule `CN(C)CCNC(=O)[C@@H]1C[C@]2(C)[C@H]3CC=C4[C@@H]5CC(C)(C)CC[C@]5(C(=O)O)CC[C@@]4(C)[C@]3(C)CC[C@H]2C(C)(C)[C@H]1O` registered an MBIC50 with Escherichia coli [1] of 4 µg/mL. The inhibition at 16 µg/mL with Escherichia coli [2] was 30%; in the experiment with Pseudomonas aeruginosa [3], less than 20%.
For `CC1(C)CC[C@]2(C(=O)O)CC[C@]3(C)C(=CC[C@@H]4[C@@]5(C)C[C@@H](c6ncc[nH]6)[C@H](O)C(C)(C)[C@@H]5CC[C@]43C)[C@@H]2C1`, the MBIC50 in the experiment with Escherichia coli [1] is 16 µg/mL. For the same molecule, the inhibition at 16 µg/mL in the experiment with Escherichia coli [2] is more than 90%; in the experiment on Pseudomonas aeruginosa [3], less than 20%.
For the molecule `C=C(C)[C@@H]1CC[C@]2(C(=O)O)CC[C@]3(C)[C@H](CC[C@@H]4[C@@]5(C)CC[C@H](O)C(C)(C)[C@@H]5CC[C@]43C)[C@@H]12` [BETULINIC ACID], testing at 16 µg/mL in the experiment on Pseudomonas aeruginosa [3] gave an inhibition of 80%.
`CC1(C)CC[C@]2(C(=O)O)CC[C@]3(C)C(=CC[C@@H]4[C@@]5(C)C[C@@H](C6=NCCO6)[C@H](O)C(C)(C)[C@@H]5CC[C@]43C)[C@@H]2C1` returned an MBIC50 in the experiment on Escherichia coli [1] of 8 µg/mL. The inhibition at 16 µg/mL with Escherichia coli [2] and in the experiment on Pseudomonas aeruginosa [3] was less than 20% throughout.
As to `CC1(C)CC[C@]2(C(=O)O)CC[C@]3(C)C(=CC[C@@H]4[C@@]5(C)Cc6cnc(N)nc6C(C)(C)[C@@H]5CC[C@]43C)[C@@H]2C1`, the MBIC50 entry in the experiment with Escherichia coli [1] was “>=32 ug ml-1”. Besides, the values for the inhibition at 16 µg/mL with Escherichia coli [2] and in the experiment with Pseudomonas aeruginosa [3] were 90% and 80%, respectively.
Turning to `CNC(=N)[C@@H]1C[C@]2(C)[C@H]3CC=C4[C@@H]5CC(C)(C)CC[C@]5(C(=O)O)CC[C@@]4(C)[C@]3(C)CC[C@H]2C(C)(C)[C@H]1O`, the MBIC50 entry in the experiment with Escherichia coli [1] is given as “>=32 ug ml-1”. Moreover, the figures for the inhibition at 16 µg/mL with Escherichia coli [2] and in the experiment on Pseudomonas aeruginosa [3] were 30% and less than 20%, respectively.
Molecule `CC(=O)N(C(C)=O)c1ncc2c(n1)C(C)(C)[C@@H]1CC[C@]3(C)[C@H](CC=C4[C@@H]5CC(C)(C)CC[C@]5(C(=O)O)CC[C@]43C)[C@@]1(C)C2` showed an MBIC50 in the experiment with Escherichia coli [1] of 8 µg/mL. The inhibition at 16 µg/mL in the experiment with Escherichia coli [2] stood at 70%; in the experiment with Pseudomonas aeruginosa [3] it was 90%.
For `C[C@H]1[C@H](C)CC[C@]2(CO)CC[C@]3(C)C(=CC[C@@H]4[C@@]5(C)CC[C@H](O)C(C)(C)[C@@H]5CC[C@]43C)[C@H]12` [UVAOL], in the experiment with Pseudomonas aeruginosa [3], the inhibition at 16 µg/mL is less than 20%.
Turning to `CN1C[C@@H]2C[C@]3(C)[C@H]4CC=C5[C@@H]6CC(C)(C)CC[C@]6(C(=O)O)CC[C@@]5(C)[C@]4(C)CC[C@H]3C(C)(C)[C@H]2OC1=O`, in the experiment with Escherichia coli [1], the MBIC50 result was “>=32 ug ml-1”. Also, the inhibition at 16 µg/mL with Escherichia coli [2] and in the experiment on Pseudomonas aeruginosa [3] was less than 20% each time.
As for `CC[C@H]1OC(=O)[C@H](C)[C@@H](O[C@H]2C[C@@](C)(OC)[C@@H](O)[C@H](C)O2)[C@H](C)[C@@H](O[C@@H]2O[C@H](C)C[C@H](N(C)C)[C@H]2O)[C@](C)(O)C[C@@H](C)CN(C)[C@H](C)[C@@H](O)[C@]1(C)O` [AZITHROMYCIN], the INH in the experiment with Pseudomonas aeruginosa [4], in the experiment with Burkholderia cepacia and with Salmonella enterica was more than 16 µg/mL throughout.
In turn, `C[C@H]1[C@H](C)CC[C@]2(C(=O)O)CC[C@]3(C)C(=CC[C@@H]4[C@@]5(C)C[C@@H](O)[C@@H](O)C(C)(C)[C@@H]5CC[C@]43C)[C@H]12` [PYGENIC ACID A] displayed an inhibition at 16 µg/mL in the experiment with Pseudomonas aeruginosa [3] of more than 90%.
`CC(C)(O/N=C(\C(=O)N[C@@H]1C(=O)N2C(C(=O)[O-])=C(C[n+]3ccccc3)CS[C@H]12)c1csc(N)n1)C(=O)O` [CEFTAZIDIME]: the INH was 4 µg/mL with Pseudomonas aeruginosa [4], 0.25 µg/mL in the experiment on Escherichia coli [5], more than 8 µg/mL with Burkholderia cepacia and 0.5 µg/mL in the experiment with Salmonella enterica.
In the experiment with Escherichia coli [1], `CN(C)C(=O)[C@@H]1C[C@]2(C)[C@H]3CC=C4[C@@H]5CC(C)(C)CC[C@]5(C(=O)O)CC[C@@]4(C)[C@]3(C)CC[C@H]2C(C)(C)[C@H]1O` had an MBIC50 of 4 µg/mL. Further, the inhibition at 16 µg/mL with Escherichia coli [2] and in the experiment on Pseudomonas aeruginosa [3] was less than 20% in each case.
Regarding `COC(=O)[C@]12CCC(C)(C)C[C@H]1C1=CC[C@@H]3[C@@]4(C)CC[C@H](O)C(C)(C)[C@@H]4CC[C@@]3(C)[C@]1(C)CC2` [METHYL OLEANOLATE], testing at 16 µg/mL with Pseudomonas aeruginosa [3] gave an inhibition of 30%.
As to `CC1(C)CC[C@]2(C(=O)O)CC[C@]3(C)C(=CC[C@@H]4[C@@]5(C)C[C@@H](C6=NCCCN6)[C@H](O)C(C)(C)[C@@H]5CC[C@]43C)[C@@H]2C1`, the MBIC50 in the experiment with Escherichia coli [1] was determined as 4 µg/mL. Moreover, the values for the inhibition at 16 µg/mL with Escherichia coli [2] and with Pseudomonas aeruginosa [3] were 60% and less than 20%, respectively.
In the same order, the values of `CNC(=O)[C@@H]1C[C@]2(C)[C@H]3CC=C4[C@@H]5CC(C)(C)CC[C@]5(C(=O)O)CC[C@@]4(C)[C@]3(C)CC[C@H]2C(C)(C)[C@H]1O` are 4 µg/mL, less than 20% and less than 20%.
On to `CC(C)CN(C)C[C@@H]1C[C@]2(C)[C@H]3CC=C4[C@@H]5CC(C)(C)CC[C@]5(C(=O)O)CC[C@@]4(C)[C@]3(C)CC[C@H]2C(C)(C)[C@H]1O`, for which the MBIC50 result with Escherichia coli [1] was “>=32 ug ml-1”. Also, the inhibition at 16 µg/mL is 90% with Escherichia coli [2] and less than 20% in the experiment on Pseudomonas aeruginosa [3].
In the experiment on Pseudomonas aeruginosa [3], `C[C@H]1[C@H](C)CC[C@]2(C(=O)O)CC[C@]3(C)C(=CC[C@@H]4[C@@]5(C)C[C@@H](O)[C@H](O)[C@@](C)(CO)[C@@H]5CC[C@]43C)[C@H]12` [ASIATIC ACID] came in with an inhibition at 16 µg/mL of 70%.
The molecule `CCN(C[C@@H]1C[C@]2(C)[C@H]3CC=C4[C@@H]5CC(C)(C)CC[C@]5(C(=O)O)CC[C@@]4(C)[C@]3(C)CC[C@H]2C(C)(C)[C@H]1O)C(C)=O` had an MBIC50 in the experiment with Escherichia coli [1] of 4 µg/mL. The figures for the inhibition at 16 µg/mL with Escherichia coli [2] and in the experiment with Pseudomonas aeruginosa [3] were 30% and less than 20%, respectively.
The matching figures for `CC1(C)CC[C@]2(C(=O)O)CC[C@]3(C)C(=CC[C@@H]4[C@@]5(C)Cc6c(O)nc(N)nc6C(C)(C)[C@@H]5CC[C@]43C)[C@@H]2C1`: “>=32 ug ml-1”, more than 90% and 90%.
In the same order, the values of `CC1(C)CC[C@]2(C(=O)O)CC[C@]3(C)C(=CC[C@@H]4[C@@]5(C)C[C@@H](C6=NCCN6)[C@H](O)C(C)(C)[C@@H]5CC[C@]43C)[C@@H]2C1` are “>=32 ug ml-1”, more than 90% and less than 20%.
On to `C[C@H]1[C@H](C)CC[C@]2(C(=O)O)CC[C@]3(C)C(=CC[C@@H]4[C@@]5(C)C[C@@H](O)[C@@H](O)[C@](C)(CO)[C@@H]5CC[C@]43C)[C@H]12`, for which at 16 µg/mL the inhibition in the experiment on Pseudomonas aeruginosa [3] was 90%.
Consider `CC1(C)CC[C@]2(C(=O)O)CC[C@]3(C)C(=CC[C@@H]4[C@@]5(C)C[C@@H](C(=O)N6CCOCC6)[C@H](O)C(C)(C)[C@@H]5CC[C@]43C)[C@@H]2C1`, for which, in the experiment on Escherichia coli [1], the MBIC50 is 4 µg/mL. The inhibition at 16 µg/mL with Escherichia coli [2] and with Pseudomonas aeruginosa [3] was less than 20% each time.
As for `C[C@H]1[C@H](C)CC[C@]2(C(=O)O)CC[C@]3(C)C(=CC[C@@H]4[C@@]5(C)C[C@@H](O)[C@H](O)[C@@](C)(CO)[C@@H]5[C@H](O)C[C@]43C)[C@H]12` [MADECASSIC ACID], the inhibition at 16 µg/mL with Pseudomonas aeruginosa [3] worked out at 90%.
Turning to `CN(C)C[C@@H]1C[C@]2(C)[C@H]3CC=C4[C@@H]5CC(C)(C)CC[C@]5(C(=O)O)CC[C@@]4(C)[C@]3(C)CC[C@H]2C(C)(C)[C@H]1O`, in the experiment with Escherichia coli [1], the MBIC50 entry was “>=32 ug ml-1”. Also, the inhibition at 16 µg/mL in the experiment with Escherichia coli [2] is 70%; in the experiment with Pseudomonas aeruginosa [3] it was less than 20%.
